Data taken from patent US20230398227A1, “MEDICINE FOR TREATING CANCER” (CHIOME BIOSCIENCE INC., priority 2020, published 2023).

Legend:
[1] = tested on: human hepatic cancer cell line Hep3B xenograft; assay: Antitumor effect in Hep3B xenograft therapeutic model, HuBA-1-3D and CH518324/Debio1347; assay type: in vivo, mice; conditions: alone or combined
Source text: In each group, a mouse whose tumor volume exceeded 1,500 mm^3 was sacrificed at that point of time.

FGFR4 = FGFR4 (Homo sapiens, UniProt P22455); conditions: reported in Mol Cancer Ther (2014); 13(11); 2547-58; read-out: tyrosine kinase inhibitory activity (IC50) against FGFR4; cited from earlier work
FGFR4, sequence (P22455 22-802): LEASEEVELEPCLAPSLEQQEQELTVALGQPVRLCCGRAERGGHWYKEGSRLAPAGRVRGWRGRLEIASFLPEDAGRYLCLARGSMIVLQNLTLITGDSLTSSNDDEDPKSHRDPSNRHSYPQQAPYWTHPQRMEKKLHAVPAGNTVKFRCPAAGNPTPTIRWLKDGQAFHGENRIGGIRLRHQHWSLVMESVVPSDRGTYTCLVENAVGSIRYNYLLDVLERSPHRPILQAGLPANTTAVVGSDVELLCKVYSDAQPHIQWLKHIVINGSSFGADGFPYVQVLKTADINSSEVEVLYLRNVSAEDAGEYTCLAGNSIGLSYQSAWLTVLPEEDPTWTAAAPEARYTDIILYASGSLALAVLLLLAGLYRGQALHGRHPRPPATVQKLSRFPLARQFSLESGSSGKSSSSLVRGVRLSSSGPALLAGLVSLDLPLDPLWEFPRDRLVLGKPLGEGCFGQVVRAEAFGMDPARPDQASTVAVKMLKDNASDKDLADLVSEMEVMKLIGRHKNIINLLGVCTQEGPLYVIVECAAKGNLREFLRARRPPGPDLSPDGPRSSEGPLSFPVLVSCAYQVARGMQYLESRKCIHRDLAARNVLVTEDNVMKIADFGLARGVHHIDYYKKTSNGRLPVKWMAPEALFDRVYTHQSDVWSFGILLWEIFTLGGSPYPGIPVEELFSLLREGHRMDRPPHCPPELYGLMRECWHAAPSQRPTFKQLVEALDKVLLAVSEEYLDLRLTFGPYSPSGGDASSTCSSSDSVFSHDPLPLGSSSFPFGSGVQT

Hep3B xenograft tumor [2] = assay: Western blotting of apoptosis markers and cyclin B1 in Hep3B xenograft tumor at 48 hours after administration; assay type: in vivo, NOD-SCID mice; conditions: three animals per group, HuBA-1-3D 1 mg/kg, H3B-6527 50 mg/kg, FGF-401 10 mg/kg, BLU-554 30 mg/kg
Protocol: (§1) Hep3B cells (1×10^6 cells) were transplanted subcutaneously into the right flank of NOD-SCID mice. At the stage where the tumor volume reached 250 to 350 mm 3, these mice were divided into the following 8 groups of 6 mice each, and administered from the same day: • the Vehicle group; • the group receiving HuBA-1-3D (1 mg/kg); • the group receiving H3B-6527 (50 mg/kg); • the group receiving FGF-401 (10 mg/kg); • the group receiving BLU-554 (30 mg/kg); • the group receiving HuBA-1-3D (1 mg/kg)+H3B-6527 (50 mg/kg); • the group receiving HuBA-1-3D (1 mg/kg)+FGF-401 (10 mg/kg); and • the group receiving HuBA-1-3D (1 mg/kg)+BLU-554 (30 mg/kg).
(§2) HuBA-1-3D was intraperitoneally administered, while FGFR4 inhibitors (H3B-6527, FGF-401 and BLU-554) were orally administered. At 48 hours after administration, three mice in each group were sacrificed to excise their tumors, and the tumors were fixed in 10% formalin and then embedded in paraffin to prepare sections for immunostaining. In addition, tissue extracts were prepared for Western blotting.
Subsequently, apoptosis (cleaved caspase-3 and Cleaved PARP) and cancer cell proliferation (cyclin B1) in the Hep3B xenograft tumor upon administration of each agent were analyzed by Western blotting.

[3] = tested on: human hepatic cancer cell line Hep3B xenograft; assay: Antitumor effect in Hep3B xenograft therapeutic model, HuBA-1-3D and FGF-401; assay type: in vivo, NOD-SCID mice; conditions: alone or combined
Source text: (§3) Then, in an attempt to further verify the enhancing effect on antitumor activity upon combined administration of HuBA-1-3D antibody and FGFR4 inhibitor (FGF-401), the antitumor effect obtained upon combined administration of FGF-401 and HuBA-1-3D was studied in a xenograft therapeutic model based on the human hepatic cancer cell line Hep3B, wherein FGF-401 inhibits FGFR4-specific tyrosine kinase activity by specifically binding to cysteine at amino acid position 552 of the ATP-binding region present in the region located at amino acid positions 545 to 562 of FGFR4 (Mol. Cancer Ther. 2019 December; 18(12):2194-2206), as in the case of H3B-6527.
Hep3B cells (1×10^6 cells) were transplanted subcutaneously into the right flank of NOD-SCID mice (Day 0). At the stage where the mean tumor volume exceeded 100 mm^3 (Day 14), the mice were divided into the following 6 groups, and administered from the same day: • the Vehicle group (N=8); • the group receiving FGF-401 (10 mg/kg body weight, twice a day) (N=8); • the group receiving HuBA-1-3D (0.3 mg/kg body weight) (N=8); • the group receiving HuBA-1-3D (1 mg/kg body weight) (N=8); • the group receiving FGF-401 (10 mg/kg body weight) and HuBA-1-3D (0.3 mg/kg body weight) (N=8); and • the group receiving FGF-401 (10 mg/kg body weight) and HuBA-1-3D (1 mg/kg body weight) (N=8).
HuBA-1-3D was intraperitoneally administered once a day 4 times in total on Days 14, 17, 21 and 24, while FGF-401 was orally administered twice a day 10 times in total on Days 14, 15, 16, 17, 18, 21, 22, 23, 24 and 25. The combined administration of HuBA-1-3D and FGF-401 was performed 4 times in total on Days 14, 17, 21 and 24. In each group, a mouse whose tumor volume exceeded 1,500 mm^3 was sacrificed at that point of time.

Hep3B xenograft tumor [4] = assay: Immunostaining for Ki-67 and cleaved caspase-3 in Hep3B xenograft tumor at 48 hours after administration; assay type: in vivo, NOD-SCID mice; conditions: HuBA-1-3D 1 mg/kg i.p., H3B-6527 50 mg/kg, FGF-401 10 mg/kg, BLU-554 30 mg/kg oral, alone or combined
Protocol: as §1, §2
Cancer cell proliferation and apoptosis in the Hep3B tumor at 48 hours after administration were analyzed by immunostaining in which Ki-67 or cleaved caspase-3 expression was used as an indicator.

[5] = tested on: human hepatic cancer cell line Hep3B xenograft; assay: Antitumor effect in Hep3B xenograft therapeutic model, HuBA-1-3D and BLU-554; assay type: in vivo, mouse; conditions: alone or combined
Source text: as §3, with “In” for “Then, in”, “as in the case of the above examples,” for “(FGF-401),”, “BLU-554” for “FGF-401”, “(Cancer Discov.” for “(Mol. Cancer Ther.”, “9(12):1696-1707),” for “18(12):2194-2206),”, “H3B-6527 and FGF-401.” for “H3B-6527.”
Hep3B cells (1×10^6 cells) were transplanted (Day 0), and at the point of time when the mean tumor volume exceeded 100 mm^3 (Day 14), animals were divided into the following 4 groups and administered from the same day: • the Vehicle group (N=8); • the group receiving BLU-554 (30 mg/kg body weight, twice a day) (N=8); • the group receiving HuBA-1-3D (1 mg/kg body weight) (N=8); and • the group receiving BLU-554 (30 mg/kg body weight) and HuBA-1-3D (1 mg/kg body weight) (N=8).
HuBA-1-3D was intraperitoneally administered once a day 4 times in total on Days 14, 17, 21 and 24, while BLU-554 was orally administered twice a day 10 times in total on Days 14, 15, 16, 17, 18, 21, 22, 23, 24 and 25. […]

[6] = tested on: human hepatic cancer cell line Hep3B xenograft; assay: Antitumor effect in Hep3B xenograft therapeutic model, HuBA-1-3D and H3B-6527; assay type: in vivo, NOD-scid mice; conditions: alone or combined
Source text: The antitumor effect obtained upon combined administration of HuBA-1-3D antibody and H3B-6527 serving as a small molecule inhibitor against FGFR4 (Cancer Res. 2017 Dec. 15; 77(24):6999-7013) was studied in a xenograft therapeutic model based on the human hepatic cancer cell line Hep3B. • (1) Hep3B cells were transplanted subcutaneously into the right flank of NOD-scid mice (Day 0). At the stage where the mean tumor volume reached around 100 mm^3 (Day 14), the mice were divided into the following 6 groups, and administered from the same day for 11 days with HuBA-1-3D at a frequency of twice a week (Days 14, 18, 22 and 25) and/or with H3B-6527 twice a day (BID) and five times a week in a cycle of administration for 5 days and withdrawal for 2 days (Days 14, 15, 16, 17, 18, 21, 22, 23, 24 and 25): • the Vehicle group (N=8) • the group receiving H3B-6527 (50 mg/kg body weight, twice a day) (N=8); • the group receiving HuBA-1-3D (0.3 mg/kg body weight) (N=8); • the group receiving HuBA-1-3D (1 mg/kg body weight) (N=8); • the group receiving H3B-6527 (50 mg/kg body weight) and HuBA-1-3D (0.3 • mg/kg body weight) (N=8); and • the group receiving H3B-6527 (50 mg/kg body weight) and HuBA-1-3D (1 mg/kg body weight) (N=8).
The tumor volume was measured at a frequency of twice a week, and an animal whose tumor volume reached 1,500 mm^3 was excluded from observation.

SMILES	mean tumor volume ([1]; Day 31 (6 days after final administration), CH518324/Debio1347 50 mg/kg once a day oral, HuBA-1-3D 1 mg/kg i.p.) [mm^3]	T/C ([1]; Day 31, vs Vehicle, CH518324/Debio1347 50 mg/kg, HuBA-1-3D 1 mg/kg) [%]	IC50 (FGFR4) [nM]	expression level of cyclin B1 (cell proliferation marker) compared to the Vehicle group (Hep3B xenograft tumor [2])	expression of apoptosis markers (Cleaved caspase-3 and cleaved PARP) (Hep3B xenograft tumor [2])	tumor volume ([3]; Day 28 (3 days after final administration), FGF-401 10 mg/kg twice a day oral, HuBA-1-3D 1 mg/kg i.p.) [mm^3]	T/C ([3]; Day 28, vs Vehicle, FGF-401 10 mg/kg, HuBA-1-3D 1 mg/kg) [%]	antitumor effect compared to tumor volume in the Vehicle group ([3]; Day 35 (10 days after final administration), FGF-401 10 mg/kg, HuBA-1-3D 1 mg/kg, Dunnett)	apoptotic cells stained with cleaved caspase-3 in the tumor (Hep3B xenograft tumor [4])	proportion of cancer cells stained with Ki-67 compared to the Vehicle group (Hep3B xenograft tumor [4])	mean tumor volume ([5]; Day 38 (13 days after final administration), BLU-554 30 mg/kg twice a day oral, HuBA-1-3D 1 mg/kg i.p.) [mm^3]	T/C ([5]; Day 38, vs Vehicle, BLU-554 30 mg/kg, HuBA-1-3D 1 mg/kg) [%]	tumor volume ([6]; Day 32 (7 days after completion of administration), H3B-6527 50 mg/kg twice a day, HuBA-1-3D 1 mg/kg twice a week) [mm^3]	T/C ([6]; Day 32, vs Vehicle, H3B-6527 50 mg/kg twice a day, HuBA-1-3D 1 mg/kg) [%]	tumor volume ([6]; Day 38 (13 days after final administration), H3B-6527 50 mg/kg, HuBA-1-3D 1 mg/kg) [mm^3]	tumor presence / tumor disappearance at excision (animals) ([6]; Day 38, H3B-6527 50 mg/kg, HuBA-1-3D 1 mg/kg)	tumor weight ([6]; tumors excised on Day 38, H3B-6527 50 mg/kg, HuBA-1-3D 1 mg/kg) [g]
Cc1nc2ccc(-n3ncc(C(=O)c4cc5ccccc5[nH]4)c3N)cc2[nH]1 [CH518324/Debio1347]	673.8±271.8	56.2	290														
COCCNc1cc(NC(=O)N2CCCc3cc(CN4CCN(C)CC4=O)c(C=O)nc32)ncc1C#N [FGF-401, N-[5-cyano-4-[(2-methoxyethyl)amino]-2-pyridinyl]-7-formyl-3,4-dihydro-6-[(4-methyl-2-oxo-1-piperazinyl)methyl]-1,8-naphthyridine-1(2H)-carboxamide]				no difference	induced in none of the three animals	388.9±94.8	56.8	significant antitumor effect	not detected	no change							
C=CC(=O)N[C@H]1CCOC[C@H]1Nc1ncc2cc(-c3c(Cl)c(OC)cc(OC)c3Cl)ccc2n1 [BLU-554, N-[(3 S,4S)-3-[[6-(2,6-dichloro-3,5-dimethoxyphenyl)quinazolin-2-yl]amino]oxan-4-yl]prop-2-enamide]				no difference	induced in none of the three animals				not detected	no change	688.8±562.4	63.7					
C=CC(=O)Nc1cc(N2CCN(CC)CC2)ccc1Nc1cc(N(C)C(=O)Nc2c(Cl)c(OC)cc(OC)c2Cl)ncn1 [H3B-6527, N-{2-[(6-{[(2,6-dichloro-3,5-dimethoxyphenyl)carbamoyl](methyl)amino}-4-pyrimidinyl)amino]-5-(4-ethyl-1-piperazinyl)phenyl}acrylamide]				no difference	induced in none of the three animals				not detected	no change			647.8±146.2	47	1222.0±326.5	all the 8 animals in each group were confirmed to have tumor	1.010 ± 0.260
